One test concerns HeLa. The test is described as follows: Growth inhibition of human HeLa cells by MTT assay. The class given is functional, cell-based.
In the next test the test system is HL-60. The test is described as follows: Growth inhibition of human HL60 cells by MTT assay. The class given is functional, cell-based. A general note: Tetrazolium assays rely on reduction of a dye to a coloured formazan, in cell work by metabolically active cells.
Another test relates to SMMC-7721. The test is described as follows: Growth inhibition of human SMMC7721 cells by MTT assay. The class given is functional, cell-based.
The next test deals with P388. The test can be described thus: Growth inhibition of mouse P388 cells by MTT assay. The class given is functional, cell-based.
Another test deals with DNA. The test is described as follows: Binding affinity to calf thymus DNA. The class given is nucleic-acid assay. To be noted: Bos taurus.
Another test relates to A549. The test can be described thus: Growth inhibition of human A549 cells by SRB assay. The class given is functional, cell-based. Background: The SRB assay estimates cell density from bound dye.

pIC50: −log10 of the molar value.

The text below walks through data of ChEMBL document CHEMBL1149601, “Molecular design, chemical synthesis, and biological evaluation of '4-1' pentacyclic aryl/heteroaryl-imidazonaphthalimides” (Bioorg Med Chem, 2007).

Take `CN(C)CCN1C(=O)c2cccc3c2c(cc2[nH]c(-c4ccco4)nc23)C1=O`: the negative-log IC50 (pIC50) (usually −log10 of the IC50, conventionally taken in molar units) in the test on HeLa is 5.76; in the test on HL-60, 5.20; in the test on SMMC-7721, 5.89; in the test with P388 it was 6.19; with A549 it was 5.14. Further, in the test with DNA, the ΔTm (in general, the shift of the melting midpoint relative to a reference) worked out at 6.8 °C.
As for `CN(C)CCN1C(=O)c2cccc3c2c(cc2[nH]c(-c4ccsc4)nc23)C1=O`, the pIC50 was 6.27 in the test with HeLa; 6.24 in the test on HL-60; 6.03 in the test with SMMC-7721; 6.80 in the test on P388; 5.07 in the test on A549. Also, in the test on DNA, the ΔTm was 8.4 °C.
Take `CN(C)CCN1C(=O)c2cccc3c2c(cc2[nH]c(-c4ccc(N(C)C)cc4)nc23)C1=O`: the negative-log IC50 (pIC50) with HeLa was 6.60; with HL-60 it was 5.97; with SMMC-7721, 5.54; in the test with P388, 5.77; in the test on A549 it was 5.07. Besides, in the test on DNA, the shift in melting temperature (ΔTm) came out at 12.1 °C.
As to `COc1ccc(-c2nc3c(cc4c5c(cccc53)C(=O)N(CCN(C)C)C4=O)[nH]2)cc1OC`, the pIC50 is 5.28 with HeLa; 4.98 in the test on HL-60; 6.66 with SMMC-7721; 5.97 in the test on P388; 6.22 in the test on A549. For the same molecule, the ΔTm in the test on DNA worked out at 13.3 °C.
As to `CN(C)CCN1C(=O)c2cccc3c2c(cc2[nH]c(-c4cccn4C)nc23)C1=O`, the pIC50 with HeLa is 5.10; with HL-60 it was 5.44; in the test with SMMC-7721, 5.54; in the test on P388 it was 6.68; in the test with A549 it was 6.39. Further, in the test with DNA, the ΔTm was 6.2 °C.
In the case of `CN(C)CCN1C(=O)c2cccc3c2c(cc2[nH]c(-c4cccs4)nc23)C1=O`, the negative-log IC50 (pIC50) is 5.87 in the test on HeLa; 6.23 with HL-60; 5.49 with SMMC-7721; 5.38 in the test on P388; 5.18 in the test with A549. The ΔTm with DNA was 6.9 °C.
In the case of `Cc1ccc(-c2nc3c(cc4c5c(cccc53)C(=O)N(CCN(C)C)C4=O)[nH]2)cc1`, the negative logarithm of the IC50 (pIC50) in the test on HeLa is 6.49; in the test with HL-60 it was 5.98; in the test on SMMC-7721, 6.24; in the test on P388, 5.26; in the test on A549, 5.26. Besides, the thermal shift (ΔTm) in the test on DNA amounted to 6.6 °C.
Consider `COc1ccc(-c2nc3c(cc4c5c(cccc53)C(=O)N(CCN(C)C)C4=O)[nH]2)cc1`, for which the pIC50 with HeLa was 6.68; in the test with HL-60, 6.34; in the test with SMMC-7721, 5.87; in the test with P388, 5.43; with A549, 5.67. In addition, in the test with DNA, the ΔTm came out at 7 °C.
Consider `CN(C)CCN1C(=O)c2cccc3c2c(cc2[nH]c(-c4ccccn4)nc23)C1=O`, for which the pIC50 with HeLa was 5.57; in the test on HL-60, 6.52; with SMMC-7721 it was 5.47; in the test on P388, 6.11; in the test with A549, 5.03. Besides, in the test on DNA, the ΔTm came to 3.8 °C.
As to `CN(C)CCN1C(=O)c2cccc3c2c(cc2[nH]c(-c4ccc(O)cc4)nc23)C1=O`, the pIC50 is 4.88 in the test with HeLa; 4.64 in the test with HL-60; under 4.00 with SMMC-7721; 5.96 with P388; 4.75 in the test on A549. Also, the ΔTm with DNA came to 6.3 °C.
As to `CN(C)CCN1C(=O)c2cccc3c2c(cc2[nH]c(-c4ccoc4)nc23)C1=O`, the pIC50 in the test on HeLa is 4.86; with HL-60, 5.28; in the test with SMMC-7721, 6.06; in the test with P388, 6.15; in the test on A549 it was 5.13. The ΔTm with DNA is 6.7 °C.
With `CN(C)CCN1C(=O)c2cccc3c2c(cc2[nH]c(-c4ccccc4)nc23)C1=O`, the negative logarithm of the IC50 (pIC50) was 6.40 with HeLa; 6.07 with HL-60; 5.47 in the test with SMMC-7721; 6.07 in the test on P388; 5.12 in the test with A549. Also, in the test with DNA, the ΔTm was 7.2 °C.
As for `CCOc1ccc(-c2nc3c(cc4c5c(cccc53)C(=O)N(CCN(C)C)C4=O)[nH]2)cc1`, the pIC50 in the test with HeLa was 6.28; in the test with HL-60, 5.34; with SMMC-7721 it was 5.99; in the test on P388, 5.61; in the test on A549, 4.83. Further, in the test with DNA, the ΔTm worked out at 10.5 °C.
In the case of `CN(C)CCN1C(=O)c2cccc3cc(N)cc(c23)C1=O` [AMONAFIDE], the pIC50 was 5.85 in the test on HeLa; 5.79 in the test on HL-60; 5.38 in the test with SMMC-7721; 5.34 in the test on P388; 4.89 in the test on A549.
In the case of `CN(C)CCN1C(=O)c2cccc3c2c(cc2[nH]c(-c4ccncc4)nc23)C1=O`, the negative-log IC50 (pIC50) in the test on HeLa is 5.27; in the test with HL-60, 5.58; with SMMC-7721, 5.75; in the test on P388, 5.25; in the test with A549, 4.22. In addition, the ΔTm with DNA came out at 4.8 °C.
As for `CN(C)CCN1C(=O)c2cccc3c2c(cc2[nH]c(-c4ccc(Cl)cc4)nc23)C1=O`, the pIC50 in the test with HeLa is 6.55; in the test with HL-60, 5.48; with SMMC-7721, 6.57; with P388, 6.02; with A549 it was 5.04. For the same molecule, the ΔTm in the test with DNA stood at 7.1 °C.
For the molecule `CN(C)CCN1C(=O)c2cccc3c2c(cc2[nH]c(-c4ccc[nH]4)nc23)C1=O`, the pIC50 in the test with HeLa is 5.48; with HL-60, 5.52; with SMMC-7721 it was 5.52; in the test on P388, 6.68; in the test with A549, 6.35. For the same molecule, the ΔTm in the test on DNA was found to be 5.7 °C.
With `CN(C)CCN1C(=O)c2cccc3c2c(cc2[nH]c(-c4ccc(C(F)(F)F)cc4)nc23)C1=O`, the pIC50 was 6.40 with HeLa; 5.31 with HL-60; 5.79 with SMMC-7721; 6.15 with P388; 4.58 in the test on A549. The ΔTm in the test with DNA came to 4.8 °C.
As for `COc1cc(-c2nc3c(cc4c5c(cccc53)C(=O)N(CCN(C)C)C4=O)[nH]2)ccc1O`, the pIC50 with HeLa is under 4.00; in the test with HL-60 it was 4.30; in the test with SMMC-7721 it was under 4.00; with P388 it was 5.72; in the test with A549, 5.29. Moreover, the ΔTm in the test on DNA worked out at 7.8 °C.
For the molecule `CN(C)CCN1C(=O)c2cccc3c2c(cc2[nH]c(-c4cccnc4)nc23)C1=O`, the pIC50 with HeLa is 5.94; in the test on HL-60, 5.88; with SMMC-7721 it was 5.89; in the test on P388 it was 5.64; in the test on A549 it was 5.00. Further, the ΔTm with DNA turned out to be 4 °C.
